In patent publication US8916586B2, “Anti-angiogenic compound” (University College Dublin—National University of Ireland, …, priority 2011, dated 2014):
“Also recorded” adds a separate entry of the source.

Tests used:
[1] = tested on: dermal-derived normal human microvascular endothelial cells (HMVEC-d); assay: In vitro HMVEC-d tube formation assay on Matrigel; type: cell-based; conditions: 100 nM, 20 hr
Method: (§1) HMVEC-d were purchased from Clonetics, San Diego, Calif., USA. Cells were maintained in complete Endothelial Cell Medium (Clonetics® EGM®-2-MV BulletKit®) containing 500 ml of Endothelial Cell Basal Medium-2 and supplemented with hEGF, 0.5 ml; Hydrocortisone, 0.2 ml; GA-1000, 0.5 ml; FBS, 25 ml; VEGF, 0.5 ml; hFGF-B, 2.0 ml; R3-IGF-1, 0.5 ml; Ascorbic Acid, 0.5 ml in a 37° C. humidified atmosphere of 5% CO2/95% air. HMVEC-d were used for experiments between passages 4-8.
Matrigel (Becton Dickenson) basement membrane matrix was used to examine HMVEC-d tube formation. Matrigel (50 μl) was plated in 96 well culture plate wells after thawing on ice and allowed to polymerise at 37° C. 5% CO2 humidified atmosphere for 1 hr. HMVEC-d were removed from culture, trypsinised, and resuspended in full strength EGM growth medium. Cells were seeded at a density of 50×10^4 cells/cm^2 and incubated for 20 hr at 37° C. 5% CO2 humidified atmosphere. Endothelial cell tubule formation was assessed using phase contrast microscopy and photographed. A connecting branch between two discrete ECs was counted as one tube. The tube analysis was determined from 3 sequential fields (magnification×10) focusing on the surface of the matrigel.

zebrafish larvae = assay: Visual function by optokinetic response (OKR) in zebrafish larvae; type: in vivo; conditions: treated from day 2-5 or day 3-5
Method: Visual function was assessed using the optokinetic response, a behavioural assay that tests the ability of larval zebrafish to track moving stripes (Brockerhoff 2006). […] For these experiments the compounds were screened in zebrafish larvae as described above except that the drug (compound 11B) was added at either day 1, 2, 3 or 4, and all treated larvae were analysed at day 5.

[2] = tested on: IL-6 secreted from explant cultures of human colorectal cancers; assay: IL-6 secretion from human colorectal tumour explants (ELISA); type: cell-based; conditions: 72 hours
Method: Human colorectal tumour samples were taken directly from the pathology laboratory after surgery once adequate material was taken for diagnostic testing. The tumour samples were washed and stored in DMSO/tumour conditioning media (TCM). The samples were snap-frozen in liquid nitrogen and stored at −80° C. until compound testing was performed. Prior to compound testing, the tumours were thawed and incubated in fresh TCM for 24 hours. […] The TCM solutions were collected and stored at −20° C. and the remaining tumour explants were snap-frozen in liquid nitrogen and stored at −80° C. The protein content of each tumour sample was determined using the BCA protein assay. ELISA was used to determine the levels of VEGF, IL-8, MCP-1, GRO-α, IL-1β and IL-6. The secretion data were normalised according to the tumour sample's protein content.

[3] = tested on: mouse model of oxygen induced retinopathy (OIR); assay: Mouse oxygen-induced retinopathy (OIR) model of ocular neovascularisation; type: in vivo; conditions: for avascular area of the retina in treated eyes: postnatal day 12-17, intravitreal
Method: To assess the ability of compound 11B to inhibit ocular neovascularisation in mammalian eyes, 11B was tested in the mouse model of oxygen induced retinopathy (OIR). […] 11B was injected intravitreally into a mouse model of oxygen-induced retinopathy (OIR). The OIR model was generated by placing postnatal day 7 (P7) mouse pups into hyperoxia (75% oxygen) for 5 days and then removing them to normoxia (21%) on postnatal day 12 (P12). The hyperoxic (high oxygen) environment causes retinal blood vessels to regress between P7 and P12. The normoxic environment on P12 is a relatively hypoxic (low oxygen) environment for the mice and causes the growth of new blood vessels (angiogenesis). For all samples, eyes were enucleated, fixed, flat mounted and then stained with an isolectin antibody to visualise the blood vessels. Blood vessels were quantified and those treated with lead compounds compared to controls.

[4] = tested on: hyaloid vasculature in zebrafish; assay: Zebrafish developmental angiogenesis assay: number of primary branches of hyaloid vasculature on dissected lens; type: in vivo
[5] = tested on: dermal-derived normal human microvascular endothelial cells (HMVEC-d); assay: HMVEC-d cell migration (CIM-plate 16, xCELLigence); type: cell-based; conditions: 100 nM (FIG. 13)
Method: as §1
Continuous monitoring of HMVEC-d cultures cell migration was recorded using a CIM-plate 16 (RTCA DP Analyser, xCELLigence System, Roche) with 5% serum serving as chemoattractant and following the manufacturer's protocol. Each well is composed of an upper chamber, a membrane with an interdigitated gold electrode on the underside of the microporous membrane (facing the lower chamber) and a lower chamber. Cells that have migrated to the lower chamber containing the chemoattractant attach to the gold electrodes and generate electrical impedance. Impedance readings are taken from an electronic sensor plate and reflect their attachment levels. […] The upper chamber was then clicked into position and 30 μl of serum-free media were added to cover the membrane surface. […] 5% CO2 humidified atmosphere and the Cell Index (CI) was recorded every 15 min. […]

[6] = tested on: trunk intersegmental vessels of zebrafish; assay: Quantification of intersegmental vessel number in zebrafish larvae; type: in vivo; conditions: for inhibition of developmental angiogenesis of the trunk intersegmental vessels / inhibition at 10 µM: 10 μM; for inhibition of developmental angiogenesis of the trunk intersegmental vessels: added at 6 hours post-fertilisation; for dose-dependence of inhibition of intersegmental vessel development: 0.1-10 μM; for dose-dependence of inhibition of intersegmental vessel development / inhibition at 10 µM: added at 6 hours post fertilisation; for inhibition at 10 µM: Danio rerio, read-out: inhibition of intersegmental vessel formation
Method: […] Larvae were manually dechorionated, euthanised, and fixed in 4% PFA at 4° C. overnight before analysis. The larvae were then washed with PBS and transferred to depression slides for observation under epi-fluorescence in an Olympus SZX16 fluorescent microscope. The number of intersegmental vessels was counted and the average number was graphed for each drug. […] At the highest concentration (10 μM), 11B was seen to inhibit intersegmental vessel formation by 44%. 11F inhibited intersegmental vessel formation by 16% at the highest concentration (10 μM).

Q: Which “inhibition of HMVEC-d tubule formation” value [1] does the source give for `Oc1ccccc1/C=C/c1ccc2ccccc2n1` [11B] here?
A: significantly inhibits

Q: What about the “visual function, optokinetic response (OKR)” value (zebrafish larvae) of the same compound?
A: no significant effect; also recorded: not statistically different from controls

Q: And the “level of IL-6 secreted by human tumour explants” value (“level of IL-6 secreted” for short) ([2]; 1 μM and 10 μM tested, concentration not given at place)?
A: significantly reduced

Q: And the “level of IL-6 secreted” value ([2]; 1 μM)?
A: significantly reduces

Q: What about the “level of IL-6 secreted” value ([2]; 10 μM) of the same compound?
A: significantly reduces

Q: What about the “avascular area of the retina in treated eyes” value ([3]; 0.5 μM) of the same compound?
A: ~33%

Q: What about the “avascular area of the retina in treated eyes” value ([3]; 3 μM) of the same compound?
A: ~30%

Q: What about the “increase in avascular retina relative to the avascular area in the P17 control” value ([3]; intraocular injections) of the same compound?
A: ~2.4 fold

Q: And the “inhibition of ocular neovascularisation in OIR model” value ([3]; intravitreal injection)?
A: inhibited angiogenesis; also recorded: can inhibit intraocular neovascularisation

Q: What about the “number of primary branches of hyaloid vasculature” value (“number” for short) ([4]; 5 μM, treated day 2-5) of the same compound?
A: significant reduction

Q: And the “number” value ([4]; 5 μM, treated day 3-5)?
A: no significant effect

Q: What about the “number” value ([4]; 5 μM, treated day 4-5) of the same compound?
A: no significant effect

Q: What about the “number” value ([4]; 10 μM, treated day 2-5) of the same compound?
A: significant reduction

Q: What about the “number” value ([4]; 10 μM, treated day 3-5) of the same compound?
A: significant reduction

Q: What about the “number” value ([4]; 10 μM, treated day 4-5) of the same compound?
A: no effect

Q: And the “time-dependence of inhibition of developmental angiogenesis in the eye” value ([4]; drug added at day 1, 2, 3 or 4, analysed at day 5)?
A: time-dependent effect; also recorded: time-dependent manner

Q: What about the “effect on HMVEC-d cell migration” value [5] of the same compound?
A: no significant effect; also recorded: neither 11B nor 11F had a significant effect; also recorded: neither 11B nor 11F had significant effects

Q: And the “inhibition of developmental angiogenesis of the trunk intersegmental vessels” value [6]?
A: significant inhibition

Q: What about the “dose-dependence of inhibition of intersegmental vessel development” value [6] of the same compound?
A: dose-dependent and statistically significant manner

Q: What about the inhibition at 10 µM [6] of the same compound?
A: 44%

Q: And the “effect on existing (earlier formed) intersegmental vessels of the trunk” value ([6]; added from day 1-5)?
A: no effect; also recorded: intact

Q: Which results are given for `COc1cc2c(C3CCCN3C)cnc(Cc3ccc4c(c3)OCO4)c2cc1OC` (centres unmarked) [11F, 1-(1,3-benzodioxol-5-ylmethyl)-6,7-dimethoxy-4-(1-methyl-2-pyrrolidinyl)isoquinoline]?
A: reduction of tubule formation compared to control [1]: 9%; effect on HMVEC-d cell migration [5]: no significant effect; also recorded: neither 11B nor 11F had a significant effect; also recorded: neither 11B nor 11F had significant effects; inhibition of developmental angiogenesis of the trunk intersegmental vessels [6]: modest but significant inhibition; dose-dependence of inhibition of intersegmental vessel development [6]: dose-dependent and statistically significant manner; inhibition at 10 µM [6]: 16%
